Laboratory results taken from US20230203081A1, “LINCOSAMIDE ANTIBIOTICS AND USES THEREOF” (President and Fellows of Harvard College, priority 2020, published 2023).
Values after ≈ are worked out from the molar mass of the structure shown.

What was measured:
Format in all cases: cell-based
[1] = system: broad panel of different clinical isolates; assay: microbe, parasite or virus in culture
Method in brief: (§1)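 Inoculum for broth microdilution was 5×10^5 CFU/mL final, prepared from overnight 35° C blood-agar subcultures (separate handling for streptococcal and anaerobic strains); MICs read by CLSI broth microdilution or agar dilution.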

[2] = system: E. coli ΔTolC; assay: microbe, parasite or virus in culture; conditions: Escherichia coli, E. coli HAV#038; ΔTolC
Method in brief: as §1

[3] = system: S. aureus ATCC 29213; assay: MIC (broth microdilution or agar dilution, CLSI); conditions: Staphylococcus aureus, ATCC29213, S. aureus HAV#001, ATCC 29213, MP-549; read-out: MIC
Method in brief: as §1

[4] = system: E. coli ATCC 25922; assay: MIC (broth microdilution or agar dilution, CLSI); conditions: Escherichia coli, ATCC25922; E. coli HAV#006, ATCC 25922
Method in brief: as §1

[5] = system: S. aureus ATCC 700699; assay: MIC (broth microdilution or agar dilution, CLSI); conditions: Staphylococcus aureus; S. aureus HAV#202, ATCC 700699 (VISA); read-out: MIC
Method in brief: as §1

[6] = system: S. pneumoniae ATCC 49619; assay: MIC (broth microdilution or agar dilution, CLSI); conditions: Streptococcus pneumoniae, ATCC49619, S. pneumoniae HAV#003, ATCC 49619; read-out: MIC
Method in brief: as §1

[7] = system: S. pyogenes MMX 946; cErmB; assay: MIC (broth microdilution or agar dilution, CLSI); conditions: Streptococcus pyogenes; S. pyogenes HAV#035, MMX 946; cErmB, mac-resistant; read-out: MIC
Method in brief: as §1

[8] = system: S. aureus MMX 3035 cErmA; assay: MIC (broth microdilution or agar dilution, CLSI); conditions: Staphylococcus aureus, MMX3035CERMA; S. aureus HAV#031, MMX 3035; cErmA; read-out: MIC
Method in brief: as §1

[9] = system: S. pyogenes ATCC 19615; assay: MIC (broth microdilution or agar dilution, CLSI); conditions: Streptococcus pyogenes, ATCC19615, S. pyogenes HAV#004, ATCC 19615; read-out: MIC
Method in brief: as §1

[10] = system: S. aureus ATCC BAA-1707 (MRSA); assay: MIC (broth microdilution or agar dilution, CLSI); conditions: Staphylococcus aureus; S. aureus HAV#016, ATCC BAA-1707; MRSA; read-out: MIC
Method in brief: as §1

[11] = system: S. aureus hVISA; assay: MIC (broth microdilution or agar dilution, CLSI); conditions: Staphylococcus aureus; S. aureus HAV#204, hVISA; read-out: MIC
Method in brief: as §1

[12] = system: E. faecalis MMX 847; cErmB; assay: MIC (broth microdilution or agar dilution, CLSI); conditions: Enterococcus faecalis; E. faecalis HAV#036, MMX 847; mac-resistant, cErmB; read-out: MIC
Method in brief: as §1

[13] = system: S. pneumoniae MMX 3031 cMefA; assay: MIC (broth microdilution or agar dilution, CLSI); conditions: Streptococcus pneumoniae, MMX3031CMEFA, S. pneumoniae HAV#034; MMX 3031, cMefA; read-out: MIC
Method in brief: as §1

[14] = system: E. coli LptD; assay: MIC (broth microdilution or agar dilution, CLSI); conditions: Escherichia coli, E. coli HAV#040; LptD; read-out: MIC
Method in brief: as §1

[15] = system: S. pneumoniae ATCC 6303; assay: MIC (broth microdilution or agar dilution, CLSI); conditions: Streptococcus pneumoniae, ATCC6303; S. pneumoniae HAV#351, ATCC 6303; read-out: MIC
Method in brief: as §1

[16] = system: S. pneumoniae MMX 3028 cErmB; assay: MIC (broth microdilution or agar dilution, CLSI); conditions: Streptococcus pneumoniae, MMX3028CERMB; S. pneumoniae HAV#033; MMX 3028, cErmB; read-out: MIC
Method in brief: as §1

[17] = system: E. faecalis ATCC 29212; assay: MIC (broth microdilution or agar dilution, CLSI); conditions: Enterococcus faecalis, ATCC29212, E. faecalis HAV#005, ATCC 29212; read-out: MIC
Method in brief: as §1

## CC(=O)NC[C@H]1CN(c2ccc(N3CCOCC3)c(F)c2)C(=O)O1 [Linezolid]
[1]; Acinetobacter baumannii, A. baumannii HAV#651, Clinical
  MIC: 16 µg/mL (≈ 47.4 µM)
[1]; Acinetobacter baumannii, A. baumannii HAV#652 Clinical
  MIC: 32 µg/mL (≈ 94.9 µM)
[1]; Acinetobacter baumannii, A. baumannii HAV#653, Clinical
  MIC: 32 µg/mL (≈ 94.9 µM)
[1]; Acinetobacter baumannii, A. baumannii HAV#654, Clinical
  MIC: 32 µg/mL (≈ 94.9 µM)
[1]; Acinetobacter baumannii, A. baumannii HAV#655, Clinical
  MIC: 128 µg/mL (≈ 379 µM)
[1]; Acinetobacter baumannii, A. baumannii HAV#656, Clinical
  MIC: 64 µg/mL (≈ 190 µM)
[1]; Acinetobacter baumannii, A. baumannii HAV#657, Clinical
  MIC: 64 µg/mL (≈ 190 µM)
[1]; Acinetobacter baumannii, A. baumannii HAV#658, Clinical
  MIC: 64 µg/mL (≈ 190 µM)
[1]; Acinetobacter baumannii, A. baumannii HAV#659, Clinical
  MIC: 64 µg/mL (≈ 190 µM)
[1]; Acinetobacter baumannii, A. baumannii HAV#660, Clinical
  MIC: 64 µg/mL (≈ 190 µM)
[1]; Acinetobacter baumannii, A. baumannii HAV#661, Clinical
  MIC: 32 µg/mL (≈ 94.9 µM)
[1]; Acinetobacter baumannii, A. baumannii HAV#662, Clinical
  MIC: 64 µg/mL (≈ 190 µM)
[1]; Acinetobacter baumannii, A. baumannii HAV#663, Clinical
  MIC: 32 µg/mL (≈ 94.9 µM)
[1]; Acinetobacter baumannii, A. baumannii HAV#664, Carbapenem R
  MIC: 64 µg/mL (≈ 190 µM)
[1]; Enterococcus faecalis, E. faecalis HAV#602, Clincal
  MIC: 4 µg/mL (≈ 11.9 µM)
[1]; Enterococcus faecalis, E. faecalis HAV#607, Clinical
  MIC: 16 µg/mL (≈ 47.4 µM)
[1]; Enterococcus faecalis, E. faecalis HAV#609, Clinical
  MIC: 4 µg/mL (≈ 11.9 µM)
[1]; Enterococcus faecalis, S. faecalis 5060, Line R & Vanco R
  MIC: 8 µg/mL (≈ 23.7 µM)
[1]; Enterococcus faecalis, S. faecalis 5074, Line R
  MIC: 8 µg/mL (≈ 23.7 µM)
[1]; Enterococcus faecalis, VRE, E. faecalis HAV#251, Clinical VRE
  MIC: 2 µg/mL (≈ 5.93 µM)
[1]; Enterococcus faecalis, VRE, E. faecalis HAV#606, Clinical
  MIC: 2 µg/mL (≈ 5.93 µM)
[1]; Enterococcus faecium, E. faecium HAV#317, Clinical
  MIC: 2 µg/mL (≈ 5.93 µM)
[1]; Enterococcus faecium, E. faecium HAV#324, Clinical
  MIC: 4 µg/mL (≈ 11.9 µM)
[1]; Enterococcus faecium, E. faecium HAV#327, Clinical
  MIC: 4 µg/mL (≈ 11.9 µM)
[1]; Enterococcus faecium, E. faecium HAV#329, Clinical
  MIC: 4 µg/mL (≈ 11.9 µM)
[1]; Enterococcus faecium, VRE, E. faecium HAV#318, VanA
  MIC: 4 µg/mL (≈ 11.9 µM)
[1]; Enterococcus faecium, VRE, E. faecium HAV#319, Line R & Vanco R
  MIC: 64 µg/mL (≈ 190 µM)
[1]; Enterococcus faecium, VRE, E. faecium HAV#320, Clinical
  MIC: 2 µg/mL (≈ 5.93 µM)
[1]; Escherichia coli, E. coli HAV#503, Clinical
  MIC: 128 µg/mL (≈ 379 µM)
[1]; Escherichia coli, E. coli HAV#511, Clinical
  MIC: 32 µg/mL (≈ 94.9 µM)
[1]; Escherichia coli, E. coli HAV#512, Clinical
  MIC: 32 µg/mL (≈ 94.9 µM)
[1]; Escherichia coli, E. coli HAV#513, Clinical
  MIC: 32 µg/mL (≈ 94.9 µM)
[1]; Escherichia coli, E. coli HAV#514, Clinical
  MIC: 32 µg/mL (≈ 94.9 µM)
[1]; Escherichia coli, E. coli HAV#516, ESBL-producing
  MIC: 64 µg/mL (≈ 190 µM)
[1]; Haemophilus influenzae, ATCC9007, H. influenzae HAV#376, ATCC-9007
  MIC: 4 µg/mL (≈ 11.9 µM)
[1]; Klebsiella pneumoniae, K. pneumoniae HAV#404, Clinical
  MIC: 32 µg/mL (≈ 94.9 µM)
[1]; Klebsiella pneumoniae, K. pneumoniae HAV#405, Clinical
  MIC: 32 µg/mL (≈ 94.9 µM)
[1]; Klebsiella pneumoniae, K. pneumoniae HAV#406, Clinical
  MIC: 32 µg/mL (≈ 94.9 µM)
[1]; Klebsiella pneumoniae, K. pneumoniae HAV#407, Clinical
  MIC: 32 µg/mL (≈ 94.9 µM)
[1]; Klebsiella pneumoniae, K. pneumoniae HAV#408, Clinical
  MIC: 32 µg/mL (≈ 94.9 µM)
[1]; Klebsiella pneumoniae, K. pneumoniae HAV#409, ESBL-producing
  MIC: 64 µg/mL (≈ 190 µM)
[1]; Staphylococcus aureus, MRSA, S. aureus HAV#0107, MRSA Col(Colindale, England)
  MIC: 2 µg/mL (≈ 5.93 µM)
[1]; Staphylococcus aureus, MRSA, S. aureus HAV#218, Line R
  MIC: 8 µg/mL (≈ 23.7 µM)
[1]; Staphylococcus aureus, MRSA, S. aureus HAV#220, Line R
  MIC: 32 µg/mL (≈ 94.9 µM)
[1]; Staphylococcus aureus, MSSA, S. aureus HAV#219, Line R
  MIC: 32 µg/mL (≈ 94.9 µM)
[1]; Staphylococcus aureus, S. aureus HAV#051, mecA, norA, spcl, ermA, aad1, aac6′-aph2″
  MIC: 4 µg/mL (≈ 11.9 µM)
[1]; Staphylococcus aureus, S. aureus HAV#052, mecA, norA, fosB, blaZ
  MIC: 4 µg/mL (≈ 11.9 µM)
[1]; Staphylococcus aureus, S. aureus HAV#053 mecA, norA, fosB
  MIC: 4 µg/mL (≈ 11.9 µM)
[1]; Staphylococcus aureus, S. aureus HAV#054, mecA, norA, spcl, aad1, fosB, ermA, aac6′-aph2″, blaZ
  MIC: 1 µg/mL (≈ 2.96 µM)
[1]; Staphylococcus aureus, S. aureus HAV#211, Clinical
  MIC: 4 µg/mL (≈ 11.9 µM)
[1]; Staphylococcus aureus, S. aureus HAV#212, Clinical
  MIC: 4 µg/mL (≈ 11.9 µM)
[1]; Staphylococcus aureus, S. aureus HAV#214, Clinical
  MIC: 4 µg/mL (≈ 11.9 µM)
[1]; Staphylococcus aureus, S. aureus HAV#216, Clinical, cfr
  MIC: 16 µg/mL (≈ 47.4 µM)
[1]; Staphylococcus aureus, S. aureus HAV#217, cfr
  MIC: 64 µg/mL (≈ 190 µM)
[1]; Staphylococcus aureus, VISA, S. aureus HAV#203, Clinical (VISA)
  MIC: 2 µg/mL (≈ 5.93 µM)
[1]; Staphylococcus epidermidis, S. epidermidis HAV# 275 Clinical, cfr
  MIC: > 64 µg/mL
[1]; Staphylococcus epidermidis, S. epidermidis HAV# 276, cfr
  MIC: > 64 µg/mL
[1]; Staphylococcus epidermidis, S. epidermidis HAV#277, Line R
  MIC: > 128 µg/mL
[1]; Staphylococcus epidermidis, S. epidermidis HAV#278 Line R
  MIC: 64 µg/mL (≈ 190 µM)
[1]; Staphylococcus epidermidis, S. epidermidis HAV#279, Line R
  MIC: 4 µg/mL (≈ 11.9 µM)
[1]; Staphylococcus haemolyticus, S. haemolyticus 5052, Line R & Methicillin R
  MIC: 64 µg/mL (≈ 190 µM)
[1]; Streptococcus pneumoniae, ATCC700673, S. pneumoniae HAV#352, ATCC 700673, MDR
  MIC: 4 µg/mL (≈ 11.9 µM)
[1]; Streptococcus pneumoniae, ATCCBAA255, S. pneumoniae HAV#354, ATCC-BAA-255
  MIC: 4 µg/mL (≈ 11.9 µM)
[1]; Streptococcus pneumoniae, ATCCBAA334, S. pneumoniae HAV#353, ATCC-BAA-334
  MIC: 4 µg/mL (≈ 11.9 µM)
[1]; Streptococcus pneumoniae, S. pneumoniae HAV#356, Clinical
  MIC: 4 µg/mL (≈ 11.9 µM)
[1]; Streptococcus pneumoniae, S. pneumoniae HAV#358, Clinical
  MIC: 4 µg/mL (≈ 11.9 µM)
[2]
  MIC: 8 µg/mL (≈ 23.7 µM)
[3]
  MIC: 2 µg/mL (≈ 5.93 µM)
[4]
  MIC: > 128 µg/mL
[5]
  MIC: 2 µg/mL (≈ 5.93 µM)
[6]
  MIC: 1 µg/mL (≈ 2.96 µM)
[7]
  MIC: 1 µg/mL (≈ 2.96 µM)
[8]
  MIC: 2 µg/mL (≈ 5.93 µM)
[9]
  MIC: 2 µg/mL (≈ 5.93 µM)
[10]
  MIC: 2 µg/mL (≈ 5.93 µM)
[11]
  MIC: 2 µg/mL (≈ 5.93 µM)
[12]
  MIC: 2 µg/mL (≈ 5.93 µM)
[13]
  MIC: 1 µg/mL (≈ 2.96 µM)
[14]
  MIC: 32 µg/mL (≈ 94.9 µM)
[15]
  MIC: 1 µg/mL (≈ 2.96 µM)
[16]
  MIC: 0.5 µg/mL (≈ 1.48 µM)
[17]
  MIC: 2 µg/mL (≈ 5.93 µM)
